# Measurements published in patent US20220390432A1, “METHODS OF CHARACTERIZING AND UTILIZING AGENT-CONDENSATE INTERACTIONS” (Whitehead Institute for Biomedical Research, priority 2019, published 2022).
# Entries after “also recorded” stand apart in the source; their conditions may differ.
# Assays:
# [1] = tested on: patient-derived ERα mutants and MED1; test: In vitro droplet assay of patient-derived ERα mutants with MED1; type: biochemical, human; details: 100 μM estrogen, 100 μM tamoxifen
# [2] = tested on: MED1 condensates at MYC in MCF7 cells; test: Immunofluorescence with DNA FISH, MED1 condensates at the MYC oncogene; type: cell-based, human; details: estrogen-starved MCF7 treated with estrogen or estrogen and tamoxifen
# Method: MCF7 cells were grown in estrogen-free DMEM for 3 days on Poly-L-ornithine coated coverslips in 24 well plates at an initial seeding density of 50,000 cells per well. Cells were then treated with vehicle, 10 uM estradiol, or 10 uM estradiol and 5 uM 4-hydroxytamoxifen for 45 minutes.
# Cells on cover slips were then fixed in 4% paraformaldehyde. Immunofluorescence was performed as described above. After incubating the cells with the secondary antibodies, cells were washed three times in PBS for 5 min at RT, fixed with 4% PFA in PBS for 10 min and washed three times in PBS. Cells were incubated in 70% ethanol, 85% ethanol and then 100% ethanol for 1 minute at RT. Probe hybridization mixture was made mixing […], of FISH Hybridization Buffer (Agilent G9400A), 1 μl of FISH probes (SureFISH 8q24.21 MYC 294 kb G101211R-8) and 2 μL of water.
# 5 μL of mixture was added on a slide and coverslip was placed on top (cell-side toward the hybridization mixture). Coverslip was sealed using rubber cement. Once rubber cement solidified, genomic DNA and probes were denatured at 78° C. for 5 minutes and slides were incubated at 16° C. in the dark O/N. The coverslip was removed from slide and incubated in pre-warmed Wash Buffer 1 (Agilent, G9401A) at 73° C. for 2 minutes and in Wash Buffer 2 (Agilent, G9402A) for 1 minute at RT. […]
# ERα point mutations = details: reference (52); cited from earlier work
# [3] = tested on: ERα-MED1 condensate at the Lac array in U2OS cells; test: Lac array assay with tethered ER, MED1 immunofluorescence; type: cell-based, human; details: for effect on ER/MED1 condensate at the Lac array: tethered ER, estrogen
# From the text: When the transcriptional apparatus is recruited to that site a mediator condensate is detectable by immunofluorescence (Middle) U20S-Lac cells were transfected with a construct expressing the Lac DBD fused to the ER LBD and GFP+/− a construct overexpressing MED1. […] (Right) Quantification of MED1 enrichment relative at the Lac array, error bars represent SD.
# Constructs were assembled by NEB HIFI cloning in pSV2 mammalian expression vector containing an SV40 promoter driving expression of a mCherry-LacI fusion protein. The intrinsically disordered region of MED1, HP1α, or the activation domain of ESR1 was fused by the c-terminus to this recombinant protein, joined by the linker sequence […] (SEQ ID NO: 16). For experiments comparing FLTX1 enrichment at the array, U20S-Lac cells were plated onto chambered coverglass (1.5 Borosilicate Glass, Nunc Lab-Tek, 155409) and transfected with either MED1 IDR or HP1α constructs with lipofectamine 3000 (Thermofisher L3000015). After 24 hours, cells were treated with either 1 uM FLTX1 or vehicle (DMF). After 30 minutes, cells were imaged on the Zeiss LSM 880 confocal microscope with Airyscan detector with 63× objective at 37° C. For experiments with high MED1, cells grown in DMEM were plated on glass coverslips and transfected using lipofectamine 3000 (Thermofisher L3000015). A construct with a mammalian expression vector containing a PGK promoter driving the expression of MED1 fused to GFP was co-transfected in high MED1 conditions. […]
# For analysis of Lac array data comparing MED1 or HP1α tethered, a region of interest was called using the signal in the Lac array (561 channel). The average fluorescent signal for FLTX1 (488 channel) was then measured in the region of interest and divided by the average fluorescence in the region of interest at the Lac array. […] For analysis of Lac array data for MED1 overexpression, enrichment was calculated by dividing the average fluorescent signal for MED1 immunofluorescence at the region of interest, defined by the ER tethered at the lac array, by MED1 immunofluorescence signal at a random nuclear region.
# MED1 droplets = biological target: T1, MED1 droplets (Homo sapiens, UniProt Q15648); test: In vitro droplet drug chase out experiment; type: binding; details: 100 μM FLTX1, 10-fold excess (1 mM) tamoxifen
# T1 construct: MED1—amino acids 600-1581; 6xHis (N); made in house; host or cells: LOBSTR cells (E. coli)
# Method: For chase-out experiments 5 μM labeled cisplatin-TR was added to a MED1 droplets reaction (10 μM MED1, 50 mM Tris-HCl pH 7.5, 10% glycerol, 1 mM DTT, 10% PEG) in order to form MED1 droplets concentrated with Cisplatin-TR. Unlabeled transplatin or unlabeled cisplatin (vehicle, 10 μM, 100 μM, or 500 μM) were added to the droplet mixture and the amount of labeled cisplatin-TR remaining in the droplet is measured after chase out. 100 μM fluorescent FLTX1 was added to a MED1 droplets reaction (10 μM MED1, 50 mM Tris-HCl pH 7.5, 10% glycerol, 1 mM DTT, 10% PEG) in order to form MED1 droplets concentrated with FLTX1.
# T1 sequence (Q15648 600-1581): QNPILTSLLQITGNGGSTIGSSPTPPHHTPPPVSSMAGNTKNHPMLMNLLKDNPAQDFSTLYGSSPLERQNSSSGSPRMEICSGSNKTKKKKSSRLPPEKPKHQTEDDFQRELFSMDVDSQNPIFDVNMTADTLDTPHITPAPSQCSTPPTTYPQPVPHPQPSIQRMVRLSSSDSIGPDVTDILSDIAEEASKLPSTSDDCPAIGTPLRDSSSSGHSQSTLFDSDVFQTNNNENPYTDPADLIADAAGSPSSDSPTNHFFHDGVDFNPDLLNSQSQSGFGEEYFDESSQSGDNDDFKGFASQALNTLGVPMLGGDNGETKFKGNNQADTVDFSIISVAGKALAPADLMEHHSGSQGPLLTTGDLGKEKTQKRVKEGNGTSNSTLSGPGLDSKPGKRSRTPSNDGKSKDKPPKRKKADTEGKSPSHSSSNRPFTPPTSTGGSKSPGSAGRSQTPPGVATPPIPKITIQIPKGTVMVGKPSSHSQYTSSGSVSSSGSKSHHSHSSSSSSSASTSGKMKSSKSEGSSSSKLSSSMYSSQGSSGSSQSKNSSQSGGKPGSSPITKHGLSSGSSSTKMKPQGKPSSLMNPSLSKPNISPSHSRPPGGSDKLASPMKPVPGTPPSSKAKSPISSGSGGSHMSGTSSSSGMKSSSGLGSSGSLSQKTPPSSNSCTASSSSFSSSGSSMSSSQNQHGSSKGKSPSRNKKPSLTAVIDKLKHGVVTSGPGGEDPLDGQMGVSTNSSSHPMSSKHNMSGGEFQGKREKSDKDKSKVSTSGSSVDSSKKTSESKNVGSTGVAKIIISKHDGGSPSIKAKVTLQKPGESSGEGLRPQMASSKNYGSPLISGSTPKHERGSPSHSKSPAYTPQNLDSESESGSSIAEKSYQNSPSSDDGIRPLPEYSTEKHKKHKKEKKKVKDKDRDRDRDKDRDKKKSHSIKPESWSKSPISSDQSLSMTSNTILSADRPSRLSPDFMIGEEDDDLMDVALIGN
smiles,measurement,setting,value
CC/C(=C(\c1ccccc1)c1ccc(OCCN(C)C)cc1)c1ccccc1 [tamoxifen],disruption of ERα mutant/MED1 condensates,[1],not disrupted
same,MED1 condensates at the MYC oncogene,[2],reduces these; also recorded: not in the absence of estrogen or in the presence of estrogen and tamoxifen
same,reduction of affinity for tamoxifen by ERα point mutations,ERα point mutations,approximately 10 fold
same,effect on ERα-MED1 condensate at the Lac array when MED1 is overexpressed,[3]; MED1 overexpressed,unable to dissociate the ERα-MED1 condensate
same,effect on ER/MED1 condensate at the Lac array,[3],eliminated by tamoxifen
same,effect on ER/MED1 condensate at the Lac array,[3]; listed as Tamoxifen,reduced ER (green) and MED1 (red) containing condensates
same,chase out of FLTX1 from MED1 droplets,MED1 droplets,diluted out
same,chase out of FLTX1 from MED1 droplets,MED1 droplets; listed as Tamoxifen,able to chase-out FLTX1
